Source: ChEMBL document CHEMBL4800722, “Data for DCP probe BI 605906” (2021)

What was measured:
[1] = molecular target: Beta-3 adrenergic receptor (Homo sapiens) (UniProt P13945); conditions: Compound concentration 10.0 uM
[2] = molecular target: Bone morphogenetic protein receptor type-1B (Homo sapiens) (UniProt O00238); assay: BMPR1B (ALK6) Invitrogen Lab (UK) kinase screen (BI); conditions: Compound concentration 1.0 uM
[3] = molecular target: Serine/threonine-protein kinase ULK1 (Homo sapiens) (UniProt O75385); conditions: Compound concentration 1.0 uM
[4] = molecular target: Serine/threonine-protein kinase WNK3 (Homo sapiens) (UniProt Q9BYP7); assay: WNK3 Invitrogen Lab (UK) kinase screen (BI); conditions: Compound concentration 1.0 uM
[5] = molecular target: Dual specificity protein kinase CLK4 (Homo sapiens) (UniProt Q9HAZ1); assay: CLK4 Invitrogen Lab (UK) kinase screen (BI); conditions: Compound concentration 1.0 uM
[6] = molecular target: Casein kinase I isoform gamma-3 (Homo sapiens) (UniProt Q9Y6M4); conditions: Compound concentration 1.0 uM
[7] = molecular target: Vascular endothelial growth factor receptor 3 (Homo sapiens) (UniProt P35916); conditions: Compound concentration 1.0 uM
[8] = molecular target: AP2-associated protein kinase 1 (Homo sapiens, UniProt Q2M2I8); assay: NanoBRET (SGC-FFM) (AAK1)
[9] = molecular target: Adenosine receptor A1 (Homo sapiens) (UniProt P30542); assay: A1/HU Eurofins SafetyScreen44 (BI); conditions: Compound concentration 100.0 uM
[10] = molecular target: RAC-alpha serine/threonine-protein kinase (Homo sapiens) (UniProt P31749)
[11] = molecular target: Calcium/calmodulin-dependent protein kinase type IV (Homo sapiens) (UniProt Q16566); assay: CAMK4 Invitrogen Lab (UK) kinase screen (BI); conditions: Compound concentration 1.0 uM
[12] = molecular target: Tyrosine-protein kinase Lck (Homo sapiens) (UniProt P06239); assay: LCK Invitrogen Lab (UK) kinase screen (BI)
[13] = molecular target: Serine/threonine-protein kinase pim-2 (Homo sapiens) (UniProt Q9P1W9); conditions: Compound concentration 10.0 uM
[14] = molecular target: Adrenergic receptor alpha-1 (Rattus norvegicus) (UniProt P15823+P23944+P43140)
[15] = molecular target: Serine/threonine-protein kinase ICK (Homo sapiens) (UniProt Q9UPZ9); conditions: Compound concentration 1.0 uM
[16] = molecular target: Death-associated protein kinase 1 (Homo sapiens) (UniProt P53355); conditions: Compound concentration 1.0 uM
[17] = molecular target: Serine/threonine-protein kinase ULK3 (Homo sapiens) (UniProt Q6PHR2); conditions: Compound concentration 1.0 uM
[18] = molecular target: Casein kinase I isoform epsilon (Homo sapiens) (UniProt P49674); assay: CSNK1E Invitrogen Lab (UK) kinase screen (BI); conditions: Compound concentration 1.0 uM
[19] = molecular target: Cyclin-dependent kinase 9 (Homo sapiens) (UniProt P50750); assay: CDK9CYCLIN Invitrogen Lab (UK) kinase screen (BI); conditions: Compound concentration 1.0 uM
[20] = molecular target: Serine/threonine-protein kinase tousled-like 2 (Homo sapiens) (UniProt Q86UE8); conditions: Compound concentration 1.0 uM
[21] = molecular target: Insulin receptor-related protein (Homo sapiens) (UniProt P14616); conditions: Compound concentration 1.0 uM
[22] = molecular target: Mitogen-activated protein kinase 12 (Homo sapiens) (UniProt P53778); conditions: Compound concentration 1.0 uM
[23] = molecular target: Nitric oxide synthase, inducible (Mus musculus) (UniProt P29477); conditions: Compound concentration 10.0 uM
[24] = molecular target: Protein-tyrosine kinase 2-beta (Homo sapiens) (UniProt Q14289)
[25] = molecular target: RAF proto-oncogene serine/threonine-protein kinase (Homo sapiens) (UniProt P04049); assay: RAF1 Invitrogen Lab (UK) kinase screen (BI); conditions: Compound concentration 1.0 uM
[26] = molecular target: Calcium/calmodulin-dependent protein kinase kinase 1 (Homo sapiens) (UniProt Q8N5S9); conditions: Compound concentration 1.0 uM
[27] = molecular target: Inhibitor of nuclear factor kappa-B kinase subunit alpha (Homo sapiens) (UniProt O15111); assay: CHUK_IKKA Invitrogen Lab (UK) kinase screen (BI)
[28] = molecular target: Protein kinase C gamma type (Homo sapiens) (UniProt P05129); assay: PRKCG Invitrogen Lab (UK) kinase screen (BI); conditions: Compound concentration 1.0 uM
[29] = molecular target: Ribosomal protein S6 kinase alpha-5 (Homo sapiens) (UniProt O75582); assay: MSK1 DUNDEE kinase screen (BI); conditions: Compound concentration 10.0 uM
[30] = molecular target: Activin receptor type-2A (Homo sapiens) (UniProt P27037); conditions: Compound concentration 1.0 uM
[31] = molecular target: AMPK alpha2/beta2/gamma3 (Homo sapiens) (UniProt P54646+O43741+Q9UGI9); conditions: Compound concentration 1.0 uM
[32] = molecular target: Serine/threonine-protein kinase Chk2 (Homo sapiens) (UniProt O96017); assay: CHEK2 Invitrogen Lab (UK) kinase screen (BI); conditions: Compound concentration 1.0 uM
[33] = system: Receptor-type tyrosine-protein kinase FLT3 (Homo sapiens), P36888 [UNDEFINED MUTATION]; conditions: Compound concentration 1.0 uM
[34] = molecular target: Receptor-interacting serine/threonine-protein kinase 3 (Homo sapiens) (UniProt Q9Y572); conditions: Compound concentration 1.0 uM
[35] = molecular target: Protein kinase C epsilon type (Homo sapiens) (UniProt Q02156); assay: PRKCE Invitrogen Lab (UK) kinase screen (BI); conditions: Compound concentration 1.0 uM
[36] = molecular target: LIM domain kinase 2 (Homo sapiens) (UniProt P53671); conditions: Compound concentration 1.0 uM
[37] = molecular target: Serine/threonine-protein kinase TBK1 (Homo sapiens) (UniProt Q9UHD2); conditions: Compound concentration 1.0 uM
[38] = molecular target: Tyrosine-protein kinase ABL1 (Homo sapiens) (UniProt P00519)
[39] = molecular target: Serine/threonine-protein kinase MRCK beta (Homo sapiens) (UniProt Q9Y5S2); assay: CDC42 BPB Invitrogen Lab (UK) kinase screen (BI); conditions: Compound concentration 1.0 uM
[40] = molecular target: Receptor tyrosine-protein kinase erbB-4 (Homo sapiens) (UniProt Q15303); conditions: Compound concentration 1.0 uM
[41] = molecular target: CDC7/DBF4 (Cell division cycle 7-related protein kinase/Activator of S phase kinase) (Homo sapiens) (UniProt Q9UBU7+O00311); assay: CDC7/DBF4 Invitrogen Lab (UK) kinase screen (BI); assay type: protein-complex assay; conditions: Compound concentration 1.0 uM
[42] = molecular target: cAMP-dependent protein kinase catalytic subunit gamma (Homo sapiens) (UniProt P22612); assay: PRKACG (PRKAC GAM Invitrogen Lab (UK) kinase screen (BI); conditions: Compound concentration 1.0 uM

Sequence of Protein-tyrosine kinase 2-beta (Homo sapiens) (Q14289 whole entry, looked up): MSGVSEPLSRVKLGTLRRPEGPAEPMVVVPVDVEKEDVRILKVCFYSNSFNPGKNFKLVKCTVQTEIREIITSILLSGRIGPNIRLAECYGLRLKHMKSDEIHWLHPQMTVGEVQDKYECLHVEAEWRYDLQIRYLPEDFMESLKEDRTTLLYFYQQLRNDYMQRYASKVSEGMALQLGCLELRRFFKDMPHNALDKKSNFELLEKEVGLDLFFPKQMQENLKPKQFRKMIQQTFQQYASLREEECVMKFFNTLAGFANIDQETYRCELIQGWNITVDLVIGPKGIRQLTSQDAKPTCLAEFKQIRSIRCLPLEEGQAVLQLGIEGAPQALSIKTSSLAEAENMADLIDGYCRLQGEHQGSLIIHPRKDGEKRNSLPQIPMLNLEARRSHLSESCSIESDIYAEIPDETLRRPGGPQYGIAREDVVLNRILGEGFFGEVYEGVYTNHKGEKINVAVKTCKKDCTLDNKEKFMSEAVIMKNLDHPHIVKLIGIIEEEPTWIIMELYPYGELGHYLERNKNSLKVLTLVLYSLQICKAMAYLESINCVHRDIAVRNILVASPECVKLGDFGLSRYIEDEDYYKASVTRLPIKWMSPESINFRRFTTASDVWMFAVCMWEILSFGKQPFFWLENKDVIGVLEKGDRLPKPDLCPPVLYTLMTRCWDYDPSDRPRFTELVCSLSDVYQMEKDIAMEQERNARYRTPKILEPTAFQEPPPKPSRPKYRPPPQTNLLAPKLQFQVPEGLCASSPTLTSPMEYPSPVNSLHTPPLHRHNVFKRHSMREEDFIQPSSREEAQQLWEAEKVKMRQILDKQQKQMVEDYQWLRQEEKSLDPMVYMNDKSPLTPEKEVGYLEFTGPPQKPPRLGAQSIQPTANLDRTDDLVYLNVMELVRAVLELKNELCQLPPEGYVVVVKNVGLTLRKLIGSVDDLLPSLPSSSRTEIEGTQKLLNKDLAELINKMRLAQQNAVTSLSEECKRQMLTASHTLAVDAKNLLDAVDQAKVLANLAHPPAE
Sequence of Inhibitor of nuclear factor kappa-B kinase subunit alpha (Homo sapiens) (O15111 whole entry): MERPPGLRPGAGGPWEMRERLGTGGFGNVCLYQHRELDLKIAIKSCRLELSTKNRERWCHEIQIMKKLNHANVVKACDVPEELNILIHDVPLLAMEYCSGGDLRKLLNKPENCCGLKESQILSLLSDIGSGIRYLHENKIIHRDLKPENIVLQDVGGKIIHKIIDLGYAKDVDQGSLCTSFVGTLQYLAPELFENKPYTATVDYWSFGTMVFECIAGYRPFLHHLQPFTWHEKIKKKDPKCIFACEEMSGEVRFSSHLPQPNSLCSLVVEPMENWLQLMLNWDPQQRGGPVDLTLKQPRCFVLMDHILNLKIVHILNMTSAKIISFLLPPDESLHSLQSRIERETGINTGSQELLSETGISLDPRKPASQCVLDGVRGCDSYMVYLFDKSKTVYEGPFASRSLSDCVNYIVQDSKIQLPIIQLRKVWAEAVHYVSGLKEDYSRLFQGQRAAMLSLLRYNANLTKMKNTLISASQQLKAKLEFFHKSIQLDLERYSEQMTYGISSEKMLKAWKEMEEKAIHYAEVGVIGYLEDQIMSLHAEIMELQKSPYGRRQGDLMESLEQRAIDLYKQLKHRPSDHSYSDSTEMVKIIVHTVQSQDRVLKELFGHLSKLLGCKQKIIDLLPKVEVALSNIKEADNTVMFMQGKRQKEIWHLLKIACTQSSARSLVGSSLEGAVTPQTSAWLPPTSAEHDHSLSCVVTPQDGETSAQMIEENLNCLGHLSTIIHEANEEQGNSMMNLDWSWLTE
Sequence of Tyrosine-protein kinase ABL1 (Homo sapiens) (P00519 whole entry): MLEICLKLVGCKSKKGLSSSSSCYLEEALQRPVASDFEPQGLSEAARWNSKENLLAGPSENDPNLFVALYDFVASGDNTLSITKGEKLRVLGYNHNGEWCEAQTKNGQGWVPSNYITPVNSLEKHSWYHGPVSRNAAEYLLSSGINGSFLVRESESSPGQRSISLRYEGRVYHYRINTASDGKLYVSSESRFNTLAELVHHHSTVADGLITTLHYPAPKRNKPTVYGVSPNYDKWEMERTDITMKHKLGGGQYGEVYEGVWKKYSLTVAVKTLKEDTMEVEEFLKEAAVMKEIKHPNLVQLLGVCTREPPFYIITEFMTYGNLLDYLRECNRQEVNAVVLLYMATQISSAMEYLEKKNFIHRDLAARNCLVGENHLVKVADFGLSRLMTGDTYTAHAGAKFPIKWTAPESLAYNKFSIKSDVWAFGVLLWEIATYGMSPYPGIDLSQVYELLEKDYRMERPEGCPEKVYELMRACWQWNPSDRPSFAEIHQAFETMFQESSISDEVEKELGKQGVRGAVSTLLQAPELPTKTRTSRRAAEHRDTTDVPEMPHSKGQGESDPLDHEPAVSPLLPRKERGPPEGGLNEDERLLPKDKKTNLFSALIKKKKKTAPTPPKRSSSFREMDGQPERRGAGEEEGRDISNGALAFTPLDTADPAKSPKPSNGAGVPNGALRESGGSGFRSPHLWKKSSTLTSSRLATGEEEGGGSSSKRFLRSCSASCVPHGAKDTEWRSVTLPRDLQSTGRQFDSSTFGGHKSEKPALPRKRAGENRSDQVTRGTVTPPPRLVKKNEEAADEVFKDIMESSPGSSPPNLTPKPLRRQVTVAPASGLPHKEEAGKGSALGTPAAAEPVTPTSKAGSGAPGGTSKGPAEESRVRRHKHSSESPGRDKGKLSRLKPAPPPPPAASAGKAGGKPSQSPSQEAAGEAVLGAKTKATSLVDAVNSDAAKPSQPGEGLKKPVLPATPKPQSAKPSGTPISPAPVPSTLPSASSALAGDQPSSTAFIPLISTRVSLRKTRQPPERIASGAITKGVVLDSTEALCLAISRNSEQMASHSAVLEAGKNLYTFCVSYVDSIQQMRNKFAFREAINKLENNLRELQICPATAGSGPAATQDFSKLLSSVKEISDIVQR
Sequence of RAC-alpha serine/threonine-protein kinase (Homo sapiens) (P31749 whole entry): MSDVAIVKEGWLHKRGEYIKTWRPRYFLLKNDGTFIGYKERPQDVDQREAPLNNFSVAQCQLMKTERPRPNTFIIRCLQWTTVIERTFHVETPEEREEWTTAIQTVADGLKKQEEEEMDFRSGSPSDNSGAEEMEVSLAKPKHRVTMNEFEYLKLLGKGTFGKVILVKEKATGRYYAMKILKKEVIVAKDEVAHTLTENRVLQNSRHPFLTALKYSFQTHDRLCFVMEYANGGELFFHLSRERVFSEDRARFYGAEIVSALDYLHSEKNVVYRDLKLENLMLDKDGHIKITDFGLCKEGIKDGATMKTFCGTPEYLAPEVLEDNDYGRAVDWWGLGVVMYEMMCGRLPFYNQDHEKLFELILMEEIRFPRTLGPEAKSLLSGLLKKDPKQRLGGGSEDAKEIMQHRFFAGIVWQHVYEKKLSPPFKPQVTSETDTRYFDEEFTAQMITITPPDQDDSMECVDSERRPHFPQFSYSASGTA
Sequence of Tyrosine-protein kinase Lck (Homo sapiens) (P06239 2-509 limits assumed): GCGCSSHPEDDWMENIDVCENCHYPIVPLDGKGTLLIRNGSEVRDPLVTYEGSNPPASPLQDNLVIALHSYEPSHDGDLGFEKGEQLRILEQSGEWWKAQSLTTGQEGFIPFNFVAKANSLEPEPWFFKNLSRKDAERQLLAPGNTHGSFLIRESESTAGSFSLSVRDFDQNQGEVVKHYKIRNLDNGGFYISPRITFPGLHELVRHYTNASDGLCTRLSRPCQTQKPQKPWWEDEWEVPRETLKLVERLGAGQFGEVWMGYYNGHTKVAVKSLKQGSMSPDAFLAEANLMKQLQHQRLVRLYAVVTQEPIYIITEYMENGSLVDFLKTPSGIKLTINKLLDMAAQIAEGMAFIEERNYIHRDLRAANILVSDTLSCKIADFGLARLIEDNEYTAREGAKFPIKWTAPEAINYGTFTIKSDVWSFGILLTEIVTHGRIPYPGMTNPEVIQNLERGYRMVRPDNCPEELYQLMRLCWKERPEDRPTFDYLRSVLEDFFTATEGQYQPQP
Sequence of Calcium/calmodulin-dependent protein kinase kinase 1 (Homo sapiens) (Q8N5S9 whole entry, looked up): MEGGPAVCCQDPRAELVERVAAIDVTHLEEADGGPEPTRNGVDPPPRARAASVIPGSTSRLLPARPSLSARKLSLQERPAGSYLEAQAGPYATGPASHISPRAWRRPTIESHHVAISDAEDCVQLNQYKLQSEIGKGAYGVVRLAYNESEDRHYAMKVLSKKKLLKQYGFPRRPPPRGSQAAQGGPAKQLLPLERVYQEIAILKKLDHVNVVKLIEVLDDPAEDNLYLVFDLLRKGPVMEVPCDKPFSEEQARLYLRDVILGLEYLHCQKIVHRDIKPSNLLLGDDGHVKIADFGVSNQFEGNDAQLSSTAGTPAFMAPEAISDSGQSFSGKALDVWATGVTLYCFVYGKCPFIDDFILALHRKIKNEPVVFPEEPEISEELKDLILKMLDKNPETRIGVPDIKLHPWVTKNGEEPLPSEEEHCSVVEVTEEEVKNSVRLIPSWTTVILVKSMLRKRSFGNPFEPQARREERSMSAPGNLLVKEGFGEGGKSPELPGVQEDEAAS
Sequence of Serine/threonine-protein kinase Chk2 (Homo sapiens) (O96017 whole entry): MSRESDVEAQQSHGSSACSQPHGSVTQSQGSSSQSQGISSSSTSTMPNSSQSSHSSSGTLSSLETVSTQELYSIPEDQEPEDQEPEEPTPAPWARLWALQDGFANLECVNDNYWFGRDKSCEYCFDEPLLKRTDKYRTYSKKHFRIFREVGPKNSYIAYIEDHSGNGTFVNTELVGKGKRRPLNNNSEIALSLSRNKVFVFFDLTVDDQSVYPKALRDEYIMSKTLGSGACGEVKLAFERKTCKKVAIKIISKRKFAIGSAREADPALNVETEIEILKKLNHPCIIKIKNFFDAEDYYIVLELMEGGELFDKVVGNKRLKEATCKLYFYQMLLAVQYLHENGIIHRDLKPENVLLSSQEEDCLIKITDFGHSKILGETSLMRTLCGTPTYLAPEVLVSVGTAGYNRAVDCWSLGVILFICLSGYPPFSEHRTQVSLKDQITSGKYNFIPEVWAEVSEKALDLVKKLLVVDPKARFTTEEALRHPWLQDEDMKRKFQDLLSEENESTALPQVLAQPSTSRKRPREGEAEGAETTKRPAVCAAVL

CCC(F)(F)c1cc(N2CCC(S(C)(=O)=O)CC2)nc2sc(C(N)=O)c(N)c12 [BI-605906]
inhibition [1]: 18% | residual activity [2]: 74% | residual activity [3]: 94% | residual activity [4]: 102% | residual activity [5]: 69% | residual activity [6]: 99% | residual activity [7]: 97% | IC50 [8]: 7 µM (not active) | residual activity [9]: 77% | residual activity ([10]; Compound concentration 1.0 uM): 99% | residual activity ([10]; Compound concentration 10.0 uM): 96% | residual activity [11]: 103% | residual activity ([12]; Compound concentration 1.0 uM): 68% | residual activity ([12]; Compound concentration 10.0 uM): 67% | residual activity [13]: 101% | residual activity ([14]; Compound concentration 10.0 uM): 109% | residual activity ([14]; Compound concentration 100.0 uM): 93% | residual activity [15]: 96% | residual activity [16]: 100% | residual activity [17]: 95% | residual activity [18]: 75% | residual activity [19]: 86% | residual activity [20]: 98% | residual activity [21]: 92% | residual activity [22]: 99% | residual activity [23]: 108% | residual activity ([24]; Compound concentration 1.0 uM): 91% | residual activity ([24]; Compound concentration 10.0 uM): 70% | residual activity [25]: 78% | residual activity [26]: 93% | residual activity ([27]; Compound concentration 1.0 uM): 67% | residual activity ([27]; Compound concentration 10.0 uM): 27% | residual activity [28]: 102% | residual activity [29]: 86.6% | residual activity [30]: 108% | residual activity [31]: 99% | residual activity [32]: 79% | residual activity [33]: 101% | residual activity [34]: 100% | residual activity [35]: 127% | residual activity [36]: 95% | residual activity [37]: 96% | residual activity ([38]; Compound concentration 1.0 uM): 95% | residual activity ([38]; Compound concentration 10.0 uM): 77% | residual activity [39]: 103% | residual activity [40]: 94% | residual activity [41]: 88% | residual activity [42]: 103%
